According to US9957273B2, “5-substituted 7- [4-(2-pyridyl)phenylmethylamino] -3-isopropylpyrazolo4,3-D]pyrimidine derivatives, use thereof as medicaments, and pharmaceutical compositions” (USTAV EXPERIMENTALNI BOTANIKY AV CR, V.V.I., priority 2015, dated 2018):
One block for each compound: values may come before it.

How the values were obtained:
[1] = system: THP1 (human monocytic cell line); assay: MTT cytotoxicity assay, leukemic cell line THP1; assay type: cell-based; conditions: Homo sapiens, THP-1, 72 h, three days
Source text: (§1) Cytotoxicity of the compounds is the major property determining their antileukemic efficacy in vivo. One of the parameters used, as the basis for cytotoxicity assays, is the metabolic activity of viable cells. For example, a microtiter assay, which uses (3-(4,5-dimethylthiazol-2-yl)-2,5-diphenyltetrazolium bromide (MTT), is widely used to quantitate cell proliferation and cytotoxicity. This assay is widely used in drug screening programs and in chemosensitivity testing. Because only metabolically active living cells reduce MTT to correspond purple formazan dye, these assays detect viable cells exclusively. The quantity of reduced MTT corresponds to the number of vital cells in the culture.
(§2) The compounds were assayed using the following leukemic cell lines: K562 (human chronic myelogenous leukaemia), HL60 (human promyelocytic leukaemia), CEM (human lymphoblastoid leukaemia), THP1 (human monocytic cell line), MV4; 11 (acute myelocytic leukemia). All cell lines were grown in RPMI medium supplemented with fetal bovine serum and L-glutamine and maintained at 37° C. in a humidified atmosphere with 5% CO2. For cytotoxicity assays, 2000-5000 cells were seeded into each well of 96 well plate, allowed to stabilize for at least 8 h and then tested compounds were added at various concentrations ranging from 100 to 0.01 μM in triplicates. After three days, MTT solution (5 mg/ml; Sigma, St. Louis, USA) was added to cells and medium was replaced with DMSO after five hours. The absorbance was measured at 620 nm by employing a microplate reader. MTT assays were repeated 3 times for each drug application and untreated cells were used as reference.

[2] = system: MCF7 (breast adenocarcinoma); assay: MTT cytotoxicity assay, solid cancer cell line MCF7; assay type: cell-based; conditions: Homo sapiens, MCF7, 72 h, three days
Experimental: as §2, with “following” for “following leukemic”, “G361 (malignant melanoma), MCF7 (breast adenocarcinoma), PLC/PRF/5 (liver hepatoma), PANC-1 (pancreatic carcinoma) and HCT116 (colon carcinoma).” for “K562 (human chronic myelogenous leukaemia), HL60 (human promyelocytic leukaemia), CEM (human lymphoblastoid leukaemia), THP1 (human monocytic cell line), MV4; 11 (acute myelocytic leukemia).”, “DMEM” for “RPMI”, “4000-10000” for “2000-5000”, “of a” for “of”, “16” for “8”

[3] = system: breast carcinoma cell line MCF7; assay: Cell cycle profile by BrdU/propidium iodide flow cytometry; assay type: cell-based; conditions: asynchronously growing MCF7, 24 h, FIG. 1
Experimental: Sub-confluent cells were treated with test compounds at different concentrations for 24 h. The cultures were pulse-labeled with […] 5-bromo-20-deoxyuridine (BrdU) for 30 min at 37° C. prior to harvesting. The cells were then washed in PBS, fixed with 70% ethanol, and denatured in 2 M HCl. Following neutralization, the cells were stained with anti-BrdU fluorescein-labeled antibodies, washed, stained with propidium iodide and analyzed by flow cytometry using a 488 nm laser

[4] = system: CEM (human lymphoblastoid leukaemia); assay: MTT cytotoxicity assay, leukemic cell line CEM; assay type: cell-based; conditions: Homo sapiens, 72 h, three days
Source text: as §1, §2

[5] = system: MV4;11 (acute myelocytic leukemia); assay: MTT cytotoxicity assay, leukemic cell line MV4;11; assay type: cell-based; conditions: Homo sapiens, MV4-11, 72 h, three days
Source text: as §1, §2

[6] = system: K562 (human chronic myelogenous leukaemia); assay: MTT cytotoxicity assay, leukemic cell line K562; assay type: cell-based; conditions: Homo sapiens, K562, 72 h, three days
Source text: as §1, §2

CDK5/p35 = target: T1, CDK5/p35 (Homo sapiens, UniProt Q00535); assay: CDK5/p35 kinase inhibition (33P-ATP, histone H1); assay type: biochemical; conditions: 0.15 μM ATP
T1 construct: purchased ProQinase GmbH
Experimental: CDK2/Cyclin E kinase was produced in Sf9 insect cells via baculoviral infection and purified on a NiNTA column (Qiagen). […] CDK5/p35 was purchased from ProQinase GmbH.
(§3) The reactions were stopped by adding 5 μL of 3% aq H3PO4. Aliquots were spotted onto P-81 phosphocellulose (Whatman), washed 3× with 0.5% aq H3PO4 and finally air-dried.

HCT116 (colon carcinoma) = assay: MTT cytotoxicity assay, solid cancer cell line HCT116; assay type: cell-based; conditions: Homo sapiens, HCT-116, 72 h, three days
Experimental: as §2, with “following” for “following leukemic”, “G361 (malignant melanoma), MCF7 (breast adenocarcinoma), PLC/PRF/5 (liver hepatoma), PANC-1 (pancreatic carcinoma) and HCT116 (colon carcinoma).” for “K562 (human chronic myelogenous leukaemia), HL60 (human promyelocytic leukaemia), CEM (human lymphoblastoid leukaemia), THP1 (human monocytic cell line), MV4; 11 (acute myelocytic leukemia).”, “DMEM” for “RPMI”, “4000-10000” for “2000-5000”, “of a” for “of”, “16” for “8”

[7] = system: HL60 (human promyelocytic leukaemia); assay: MTT cytotoxicity assay, leukemic cell line HL60; assay type: cell-based; conditions: Homo sapiens, HL-60, 72 h, three days
Source text: as §1, §2

[8] = system: PANC-1 (pancreatic carcinoma); assay: MTT cytotoxicity assay, solid cancer cell line PANC-1; assay type: cell-based; conditions: Homo sapiens, PANC-1, 72 h, three days
Experimental: as §2, with “following” for “following leukemic”, “G361 (malignant melanoma), MCF7 (breast adenocarcinoma), PLC/PRF/5 (liver hepatoma), PANC-1 (pancreatic carcinoma) and HCT116 (colon carcinoma).” for “K562 (human chronic myelogenous leukaemia), HL60 (human promyelocytic leukaemia), CEM (human lymphoblastoid leukaemia), THP1 (human monocytic cell line), MV4; 11 (acute myelocytic leukemia).”, “DMEM” for “RPMI”, “4000-10000” for “2000-5000”, “of a” for “of”, “16” for “8”

[9] = system: HUVECs (human umbilical vein endothelial cells); assay: HUVEC proliferation assay (crystal violet); assay type: cell-based; conditions: Homo sapiens, HUVEC, 72 h, read-out: Inhibition of proliferation (EC50)
Experimental: (§4) To verify that novel compounds have anti-vascularisation properties, we analyzed their influence on the proliferation and migration of HUVECs. HUVECs (human umbilical vein endothelial cells) were purchased from Promocell (Heidelberg, Germany) and cultured in endothelial cell growth medium (ECGM, Promocell, Heidelberg, Germany) containing 10% FCS (Biochrom, Berlin, Germany). Experiments were performed using cells at passage 3.
For proliferation assay, 1.5×10^3 HUVECs were cultured for 24 h. Afterwards, cells were either left untreated or treated with novel compounds for 72 h. Proliferation assay was performed using crystal violet as described previously (Koltermann et al. 2007, Cell Mol. Life Sci. 64:1715-1722).

[10] = system: PLC/PRF/5 (liver hepatoma); assay: MTT cytotoxicity assay, solid cancer cell line PLC/PRF/5; assay type: cell-based; conditions: Homo sapiens, PLC-PRF-5, 72 h, three days
Experimental: as §2, with “following” for “following leukemic”, “G361 (malignant melanoma), MCF7 (breast adenocarcinoma), PLC/PRF/5 (liver hepatoma), PANC-1 (pancreatic carcinoma) and HCT116 (colon carcinoma).” for “K562 (human chronic myelogenous leukaemia), HL60 (human promyelocytic leukaemia), CEM (human lymphoblastoid leukaemia), THP1 (human monocytic cell line), MV4; 11 (acute myelocytic leukemia).”, “DMEM” for “RPMI”, “4000-10000” for “2000-5000”, “of a” for “of”, “16” for “8”

[11] = system: G361 (malignant melanoma); assay: MTT cytotoxicity assay, solid cancer cell line G361; assay type: cell-based; conditions: Homo sapiens, G-361, 72 h, three days
Experimental: as §2, with “following” for “following leukemic”, “G361 (malignant melanoma), MCF7 (breast adenocarcinoma), PLC/PRF/5 (liver hepatoma), PANC-1 (pancreatic carcinoma) and HCT116 (colon carcinoma).” for “K562 (human chronic myelogenous leukaemia), HL60 (human promyelocytic leukaemia), CEM (human lymphoblastoid leukaemia), THP1 (human monocytic cell line), MV4; 11 (acute myelocytic leukemia).”, “DMEM” for “RPMI”, “4000-10000” for “2000-5000”, “of a” for “of”, “16” for “8”

[12] = system: HUVECs (human umbilical vein endothelial cells); assay: HUVEC migration (scratch) assay; assay type: cell-based; conditions: 16 h, read-out: Inhibition of migration (EC50)
Experimental: as §4
For migration assay, confluent HUVECs were scratched with a pipette tip and immediately treated with either starvation medium M199 (serum-free, negative control; PAN Biotech) or full endothelial cell growth medium (positive control). After 16 h, cells were fixed with 3% formaldehyde and images were taken using the TILLvisON system (Lochham, Germany) connected to an Axiovert 200 microscope (Zeiss, Germany). Evaluation of pictures was made by S.CO LifeScience (Garching, Germany). Migration was quantified as the ratio of the area covered with cells and the area of the cell free wound.

[13] = system: caspases 3 and 7 in K562 cells; assay: Caspase-3/7 activity assay in K562 cells; assay type: cell-based, human; conditions: 24 hours, FIG. 2
Experimental: Measurement of proapoptotic properties of new compounds was based on quantification of enzymatic activities of caspases-3/7. Activity of cellular caspase-3/7 was measured according to Carrasco et al., 2003, BioTechniques, 34(5): 1064-67. Briefly, the cells were incubated in a 96-well plate overnight. Next day, the compounds in appropriate concentrations were added and cells were incubated for 24 hours. After incubation, 3× caspase-3/7 assay buffer (150 mM HEPES pH 7.4, 450 mM NaCl, 150 mM KCl, 30 mM MgCl2, 1.2 mM EGTA, 1.5% Nonidet P40, 0.3% CHAPS, 30% sucrose, 30 mM DTT, 3 mM PMSF) with 150 μM Ac-DEVD-AMC as a substrate (Sigma-Aldrich) was added to the wells and plates were incubated at 37° C. […]. The caspase activity was measured using Fluoroskan Ascent microplate reader (Labsystems) at 346 nm/442 nm (excitation/emission).

CDK2/Cyclin E = target: T2, CDK2/Cyclin E (Homo sapiens, UniProt P24941); assay: CDK2/Cyclin E kinase inhibition (33P-ATP, histone H1); assay type: biochemical; conditions: 15 μM ATP
T2 construct: made in house; host or cells: Sf9 insect cells (baculovirus)
Experimental: CDK2/Cyclin E kinase was produced in Sf9 insect cells via baculoviral infection and purified on a NiNTA column (Qiagen). The kinase reactions were assayed with 1 mg/mL histone H1 in the presence of 15 μM ATP, 0.05 μCi [γ-^33P]ATP and of the test compound in a final volume of 10 μL, all in a reaction buffer (60 mM HEPES-NaOH, pH 7.5, 3 mM MgCl2, 3 mM MnCl2, 3 μM Na-orthovanadate, 1.2 mM DTT, 2.5 μg/50 μl PEG20.000). CDK5/p35 was purchased from ProQinase GmbH. The kinase reactions were assayed with 1 mg/mL histone H1 in the presence of 0.15 μM ATP, 0.05 μCi [γ-^33P]ATP and of the test compound in a final volume of 10 μL, all in a reaction buffer (60 mM HEPES-NaOH, pH 7.5, 3 mM MgCl2, 3 mM MnCl2, 3 μM Na-orthovanadate, 1.2 mM DTT, 2.5 μg/50 μl PEG20.000).
as §3

T1 sequence (Q00535 whole entry): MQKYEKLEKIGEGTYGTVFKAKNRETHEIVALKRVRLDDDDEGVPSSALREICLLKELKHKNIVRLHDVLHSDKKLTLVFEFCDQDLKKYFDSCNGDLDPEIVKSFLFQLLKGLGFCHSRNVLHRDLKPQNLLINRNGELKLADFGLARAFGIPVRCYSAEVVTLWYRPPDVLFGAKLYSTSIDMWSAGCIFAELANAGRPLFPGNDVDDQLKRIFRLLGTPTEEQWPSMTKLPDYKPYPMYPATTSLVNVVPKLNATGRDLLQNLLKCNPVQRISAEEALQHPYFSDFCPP
T1 sequence (Q15078 whole entry partner): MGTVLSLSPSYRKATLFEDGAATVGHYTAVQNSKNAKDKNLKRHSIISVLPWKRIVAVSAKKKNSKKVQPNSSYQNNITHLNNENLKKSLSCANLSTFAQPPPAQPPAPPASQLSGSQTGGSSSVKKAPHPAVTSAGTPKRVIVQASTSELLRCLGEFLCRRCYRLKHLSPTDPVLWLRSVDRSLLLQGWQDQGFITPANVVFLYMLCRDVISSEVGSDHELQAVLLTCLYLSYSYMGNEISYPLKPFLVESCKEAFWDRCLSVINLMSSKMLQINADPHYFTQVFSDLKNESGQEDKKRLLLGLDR

SMILES: CC(C)c1[nH]nc2c(NCc3ccc(-c4ccccn4)cc3)nc(NCCN(C)C)nc12 [Compound 47]
IC50 [1]: 0.06 µM
IC50 [2]: 0.23 µM
effect on the cell cycle of MCF7 [3]: potently arrested cells in S, G2 and M phases
IC50 [4]: 0.07 µM
IC50 [5]: 0.12 µM
IC50 [6]: 0.13 µM
IC50 (CDK5/p35): 2.14 µM
IC50 (HCT116 (colon carcinoma)): 0.34 µM
IC50 [7]: 0.09 µM
IC50 [8]: 0.2 µM
EC50 [9]: 181 nM
IC50 [10]: 0.24 µM
IC50 [11]: 0.47 µM

SMILES: CC(C)c1[nH]nc2c(NCc3ccc(-c4ccccn4)cc3)nc(N3CCNCC3)nc12 [Compound 13]
IC50 [1]: 0.03 µM
IC50 [2]: 0.02 µM
IC50 [4]: 0.01 µM
EC50 [12]: 26 nM
IC50 [5]: 0.04 µM
IC50 [6]: 0.02 µM
IC50 (CDK5/p35): 0.119 µM
IC50 (HCT116 (colon carcinoma)): 0.03 µM
IC50 [7]: 0.02 µM
IC50 [8]: 0.06 µM
EC50 [9]: 9 nM
IC50 [10]: 0.05 µM
IC50 [11]: 0.02 µM

SMILES: CC[C@@H](CO)Nc1nc(NCc2ccc(-c3ccccn3)cc2)c2n[nH]c(C(C)C)c2n1 [Compound 84]
effect on the cell cycle of MCF7 [3]: potently arrested cells in S, G2 and M phases
IC50 (CDK2/Cyclin E): 0.098 µM

Further lines, with some results ahead:

IC50 (CDK5/p35): 0.114 µM
SMILES: CC(C)c1[nH]nc2c(NCc3ccc(-c4ccccn4)cc3)nc(N3CCSCC3)nc12 [Compound 15]
IC50 [1]: 0.31 µM
IC50 [2]: 0.53 µM
effect on the cell cycle of MCF7 [3]: potently arrested cells in S, G2 and M phases
IC50 [4]: 0.23 µM
IC50 [5]: 0.87 µM
IC50 [6]: 0.59 µM
IC50 (HCT116 (colon carcinoma)): 0.69 µM
IC50 [7]: 0.6 µM
IC50 [8]: 0.34 µM
EC50 [9]: 153 nM
IC50 [10]: 0.2 µM
IC50 [11]: 0.42 µM

IC50 (CDK5/p35): 0.001 µM
SMILES: CC(C)c1[nH]nc2c(NCc3ccc(-c4ccccn4)cc3)nc(NCC(C)(C)O)nc12 [Compound 33]
IC50 [1]: 0.01 µM
IC50 [2]: 0.02 µM
caspase-3/7 activity in K562 cells [13]: potent dose-dependent activation of the caspases in nanomolar concentrations
IC50 [4]: 0.01 µM
EC50 [12]: 22 nM
IC50 [5]: 0.07 µM
IC50 [6]: 0.03 µM
IC50 (HCT116 (colon carcinoma)): 0.04 µM
IC50 [7]: 0.02 µM
IC50 [8]: 0.01 µM
EC50 [9]: 14 nM
IC50 [10]: 0.05 µM
IC50 [11]: 0.03 µM
